In PubChem BioAssay AID248 (DTP/NCI, 2004):
Values joined by “and” are separate entries in the source; they are usually repeats but may differ in a detail not shown here. Identical values can stand only once. Toxic doses and inconclusive results are not listed. No stated cut-off is given here; in the data, active means T/C of 150% or more; inactive means T/C below 125%.

Test system: L1210 leukemia ip in BDF1 mice, survival T/C
Test: NCI In Vivo Anticancer Drug Screen. Data for tumor model L1210 Leukemia (intraperitoneal) in B6D2F1 (BDF1) mice
Conditions: endpoint: mean survival time, higher = longer survival
How it was run: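 Transplantable tumor model; survival measured in treated vs vehicle control mice. Value = treated/control.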

[1] = dose: 100.0 mg/kg/injection, schedule: Q04DX003 (ip), vehicle: saline with Tween-80
[2] = dose: 200.0 mg/kg/injection, schedule: Q04DX003 (ip), vehicle: saline with Tween-80
[3] = dose: 400.0 mg/kg/injection, schedule: Q04DX003 (ip), vehicle: saline with Tween-80
[4] = dose: 100.0 mg/kg/injection, schedule: Q04DX003 (ip), vehicle: Klucel (hydroxypropylcellulose) (HPC)
[5] = dose: 200.0 mg/kg/injection, schedule: Q04DX003 (ip), vehicle: Klucel (hydroxypropylcellulose) (HPC)
[6] = dose: 400.0 mg/kg/injection, schedule: Q04DX003 (ip), vehicle: Klucel (hydroxypropylcellulose) (HPC)
[7] = dose: 50.0 mg/kg/injection, schedule: Q01DX009 (ip), vehicle: saline
[8] = dose: 200.0 mg/kg/injection, schedule: Q04DX002 (ip), vehicle: saline with Tween-80
[9] = dose: 100.0 mg/kg/injection, schedule: Q04DX003 (ip), vehicle: saline
[10] = dose: 200.0 mg/kg/injection, schedule: Q04DX003 (ip), vehicle: saline
[11] = dose: 400.0 mg/kg/injection, schedule: Q04DX003 (ip), vehicle: saline
[12] = dose: 100.0 mg/kg/injection, schedule: Q01DX001 (ip), vehicle: other
[13] = dose: 200.0 mg/kg/injection, schedule: Q01DX001 (ip), vehicle: other
[14] = dose: 400.0 mg/kg/injection, schedule: Q01DX001 (ip), vehicle: other
[15] = dose: 100.0 mg/kg/injection, schedule: Q01DX009 (ip), vehicle: saline
[16] = dose: 200.0 mg/kg/injection, schedule: Q01DX009 (ip), vehicle: saline
[17] = dose: 100.0 mg/kg/injection, schedule: Q01DX009 (ip), vehicle: Klucel (hydroxypropylcellulose) (HPC)
[18] = dose: 200.0 mg/kg/injection, schedule: Q01DX009 (ip), vehicle: Klucel (hydroxypropylcellulose) (HPC)

Measured: T/C

C/C=C/C1OCCO1
inactive: dose: 100.0 mg/kg/injection, schedule: Q01DX009 (ip), vehicle: acetone 92 % of control

CCCC(Cl)C(=O)Nc1cccc(OC(=O)NC)c1 (stereo not given)
inactive: [1] 95 % of control | [2] 93 % of control | [3] 102 % of control

O=C(Nc1ccc2ccccc2c1)c1ccccc1
inactive: dose: 100.0 mg/kg/injection, schedule: Q01DX009 (ip), vehicle: saline sonified 104 % of control | [4] 97 % of control | dose: 200.0 mg/kg/injection, schedule: Q01DX009 (ip), vehicle: saline sonified 96 % of control | [5] 93 % of control | dose: 400.0 mg/kg/injection, schedule: Q01DX009 (ip), vehicle: saline sonified 93 % of control | [6] 92 % of control

CC(C)COCCCN
inactive: dose: 10.0 mg/kg/injection, schedule: Q01DX009 (ip), vehicle: saline 95 % of control | [7] 95 % of control

CNC1CCCc2ccccc2C1O (stereo not given)
inactive: dose: 100.0 mg/kg/injection, schedule: Q01DX001 (ip), vehicle: saline 102 % of control

Clc1ccc(CNc2ccc(Cl)c(Cl)c2)cc1
inactive: [8] 92 % of control | dose: 400.0 mg/kg/injection, schedule: Q04DX002 (ip), vehicle: saline with Tween-80 89 % of control

C/C=C(/C)N(C(C)=O)N(C(C)=O)c1ccc([N+](=O)[O-])cc1[N+](=O)[O-]
inactive: dose: 100.0 mg/kg/injection, schedule: Q01DX009 (ip), vehicle: other 103 % of control | [9] 104 % of control | dose: 200.0 mg/kg/injection, schedule: Q01DX009 (ip), vehicle: other 101 % of control | [10] 105 % of control | dose: 400.0 mg/kg/injection, schedule: Q01DX009 (ip), vehicle: other 97 % of control | [11] 107 % of control

FC(F)(F)c1ccc2c(c1)N(CCCCl)c1ccccc1S2
inactive: dose: 50.0 mg/kg/injection, schedule: Q04DX003 (ip), vehicle: Klucel (hydroxypropylcellulose) (HPC) 103 % of control | [4] 118 % of control | [5] 105 % of control | [6] 115 % of control

Cc1ccc(S(=O)(=O)N(C)c2ccc(C#N)c3ccccc23)cc1
inactive: [1] 97 % of control | [2] 89 % of control | [3] 90 % of control

OC(c1ccccc1)(c1ccccc1)c1ccccc1CNc1ccccc1
inactive: dose: 50.0 mg/kg/injection, schedule: Q01DX001 (ip), vehicle: carboxymethylcellulose (CMC) 102 % of control | dose: 100.0 mg/kg/injection, schedule: Q01DX001 (ip), vehicle: carboxymethylcellulose (CMC) 88 % of control | dose: 200.0 mg/kg/injection, schedule: Q01DX001 (ip), vehicle: carboxymethylcellulose (CMC) 102 % of control | dose: 400.0 mg/kg/injection, schedule: Q01DX001 (ip), vehicle: carboxymethylcellulose (CMC) 96 % of control

O=S(=O)(c1ccccc1)N1CC1CBr (stereo not given)
inactive: [12] 105 % of control | [13] 100 % of control | [14] 108 % of control

CCCCCCCCCCCN1C(=O)c2ccccc2S1(=O)=O
inactive: dose: 222.0 mg/kg/injection, schedule: Q01DX Z (ip), vehicle: methylcellulose (MC) 91 % of control | dose: 333.0 mg/kg/injection, schedule: Q01DX Z (ip), vehicle: methylcellulose (MC) 105 % of control | dose: 500.0 mg/kg/injection, schedule: Q01DX Z (ip), vehicle: methylcellulose (MC) 102 % of control

CC1=C(C)CC(C(=O)c2ccccc2)=C(C(=O)c2ccccc2)C1
inactive: dose: 100.0 mg/kg/injection, schedule: Q01DX001 (ip), vehicle: Klucel (hydroxypropylcellulose) (HPC) 95 % of control | dose: 200.0 mg/kg/injection, schedule: Q01DX001 (ip), vehicle: Klucel (hydroxypropylcellulose) (HPC) 90 % of control | dose: 400.0 mg/kg/injection, schedule: Q01DX001 (ip), vehicle: Klucel (hydroxypropylcellulose) (HPC) 90 % of control

CC1(C)OCC(C2OC(=O)C(O)=C2O)O1 (stereo not given)
inactive: [7] 111 % of control | [15] 92 % of control | [16] 101 % of control

Cc1c(Cl)cccc1NC(=S)Nc1ccccc1
inactive: dose: 100.0 mg/kg/injection, schedule: Q04DX002 (ip), vehicle: Klucel (hydroxypropylcellulose) (HPC) 100 % of control | dose: 200.0 mg/kg/injection, schedule: Q04DX002 (ip), vehicle: Klucel (hydroxypropylcellulose) (HPC) 95 % of control | dose: 400.0 mg/kg/injection, schedule: Q04DX002 (ip), vehicle: Klucel (hydroxypropylcellulose) (HPC) 95 % of control

Cc1ccc(Cl)cc1NC(=O)c1ccccc1Cl
inactive: [17] 100 % of control | [15] 100 % of control | [9] 95 % of control | [18] 94 % of control | [16] 105 % of control | [10] 122 % of control | dose: 400.0 mg/kg/injection, schedule: Q01DX009 (ip), vehicle: Klucel (hydroxypropylcellulose) (HPC) 87 % of control | dose: 400.0 mg/kg/injection, schedule: Q01DX009 (ip), vehicle: saline 100 % of control | [11] 111 % of control

CCCCCCCC(=N)OCC
inactive: dose: 50.0 mg/kg/injection, schedule: Q01DX009 (ip), vehicle: saline with Tween-80 97 % of control | dose: 50.0 mg/kg/injection, schedule: Q04DX003 (ip), vehicle: saline with Tween-80 104 % of control | dose: 100.0 mg/kg/injection, schedule: Q01DX001 (ip), vehicle: saline with Tween-80 94 % of control | dose: 100.0 mg/kg/injection, schedule: Q01DX009 (ip), vehicle: saline with Tween-80 110 % of control | [1] 93 % of control | dose: 200.0 mg/kg/injection, schedule: Q01DX001 (ip), vehicle: saline with Tween-80 104 % of control | [2] 87 % of control

CC(C)OCc1c(N)nc(=S)[nH]c1C(=O)O
inactive: dose: 12.0 mg/kg/injection, schedule: Q01DX009 (ip), vehicle: saline 90 % of control | dose: 25.0 mg/kg/injection, schedule: Q01DX009 (ip), vehicle: saline 97 % of control | dose: 25.0 mg/kg/injection, schedule: Q04DX003 (ip), vehicle: saline 106 % of control | [7] 103 % of control and 92 % of control | dose: 50.0 mg/kg/injection, schedule: Q04DX003 (ip), vehicle: saline 97 % of control | [9] 102 % of control and 90 % of control

CC(=O)Nc1ccc(S(=O)(=O)c2ccc(N)cc2)cc1
inactive: dose: 12.5 mg/kg/injection, schedule: Q04DX002 (ip), vehicle: saline with Tween-80 105 % of control | dose: 25.0 mg/kg/injection, schedule: Q04DX002 (ip), vehicle: saline with Tween-80 109 % of control and 90 % of control | dose: 50.0 mg/kg/injection, schedule: Q04DX002 (ip), vehicle: saline with Tween-80 97 % of control | dose: 100.0 mg/kg/injection, schedule: Q04DX002 (ip), vehicle: saline with Tween-80 97 % of control and 102 % of control | [8] 109 % of control

Nc1[nH]c(=S)ncc1-c1ccc(Cl)c(Cl)c1
inactive: [4] 101 % of control | [5] 97 % of control | [6] 93 % of control

ONC12CCCCC1(Cl)CCCC2 (stereo not given)
inactive: dose: 150.0 mg/kg/injection, schedule: Q01DX001 (ip), vehicle: saline 94 % of control

CCCC1=C(CCC)C1C(=O)O
inactive: dose: 50.0 mg/kg/injection, schedule: Q01DX009 (ip), vehicle: Klucel (hydroxypropylcellulose) (HPC) 91 % of control | [17] 100 % of control | [4] 103 % of control | [18] 88 % of control | [5] 96 % of control

O=c1oc2cc(N=Cc3ccc4c(c3)OCO4)ccc2c2ccccc12
inactive: [12] 91 % of control | [13] 93 % of control | [14] 90 % of control

Nc1nc(SC2CCCCC2)c2[nH]cnc2n1
inactive: dose: 60.0 mg/kg/injection, schedule: Q01DX Z (ip), vehicle: carboxymethylcellulose (CMC) 95 % of control | dose: 120.0 mg/kg/injection, schedule: Q01DX Z (ip), vehicle: carboxymethylcellulose (CMC) 104 % of control | dose: 240.0 mg/kg/injection, schedule: Q01DX Z (ip), vehicle: carboxymethylcellulose (CMC) 106 % of control | dose: 480.0 mg/kg/injection, schedule: Q01DX Z (ip), vehicle: carboxymethylcellulose (CMC) 112 % of control

C1OC1C[N+]12CN3CN(CN(C3)C1)C2 (stereo not given)
inactive: dose: 100.0 mg/kg/injection, schedule: Q01DX005 (ip), vehicle: saline 92 % of control | [15] 109 % of control | dose: 200.0 mg/kg/injection, schedule: Q01DX005 (ip), vehicle: saline 113 % of control | [16] 106 % of control | dose: 400.0 mg/kg/injection, schedule: Q01DX005 (ip), vehicle: saline 103 % of control
